Test: Ocular pharmacokinetics in rabbit eyes
Type: in vivo, New Zealand white rabbits
Conditions: intravitreal injection, listed as compound of the invention
Procedure: The objective of this assay was to determine the pharmacokinetics of the test compound in rabbit ocular tissues.
The compound of the invention, 5-ethyl-2-fluoro-4-(3-(5-(1-methylpiperidin-4-yl)-4,5,6,7-tetrahydro-1H-imidazo[4,5-c]pyridin-2-yl)-1H-indazol-6-yl)phenol (1) was dissolved in either 10% 2-hydroxypropyl-β-cyclodextrin to attain a target concentration of 4 mg/mL or in purified water to attain a target concentration of 1 mg/mL. Bilateral intravitreal injection (50 μL/eye) of the solution of test compound was administered to New Zealand white rabbits in two dose groups, 200 μg/eye and 50 μg/eye, respectively, for the cyclodextrin and water vehicle formulations, respectively. The test compound concentration was measured in ocular tissues: vitreous, aqueous, retina/choroid and iris-ciliary body at pre-determined time points post injection (30 min, 4 h, 1 d, 3 d, 7 d, 14 d). Two rabbits (four eyes) were dosed for each time point.
A suspension formulation was prepared by combining crystalline compound 1 of Example 1 with 0.5% hydroxypropyl methylcellulose (HPMC E5)+0.02% Tween 80 to attain a target concentration of 10 mg/mL. Bilateral intravitreal injection (50 μL/eye) of the suspension of test compound was administered to New Zealand white rabbits (500 μg/eye). The test compound concentration was measured in ocular tissues as in the […] at 30 min, 2 wks, 4 wks, 6 wks, and 8 wks post injection. […] The behavior is consistent with the solubility of compound 1 in the vehicle and the ocular pharmacokinetic behavior in the solution formulation. The drug concentration in plasma was measured and found to be at least 3 orders of magnitude lower than the concentration in vitreous tissue.

drug concentration in plasma lower than concentration in vitreous tissue: at least three orders of magnitude lower
SMILES: CCc1cc(O)c(F)cc1-c1ccc2c(-c3nc4c([nH]3)CCN(C3CCN(C)CC3)C4)n[nH]c2c1 [compound 1, 5-ethyl-2-fluoro-4-(3-(5-(1-methylpiperidin-4-yl)-4,5,6,7-tetrahydro-1H-imidazo[4,5-c]pyridin-2-yl)-1H-indazol-6-yl)phenol]

Reference: patent US11786517B2, “Methods of treatment using a JAK inhibitor compound” (THERAVANCE BIOPHARMA R&D IP, LLC, priority 2017, dated 2023)
